Assay results from paper PMC12591484 (PLOS One, 2025).
Marks after values point to notes of the source that are not given here.

Key:
Experiment in all cases: Drug protection from pCMBS modification (SCAMP)
Type in all cases: cell-based
Design in all cases: key: +: SCAMP is Substituted Cysteine Modification and Protection and is positive when adding anesthetic to cysteine modifier significantly reduces persistent post-exposure effects due to covalent modification; -: Negative results are indicated by “–“ symbols
[1] = molecular target: T1, α1β3γ2S301C GABAA receptors (Homo sapiens, UniProt P14867+P18507+P28472, S340C); details: results of this study (*)
T1 construct: expressed in transfected cells; host or cells: Xenopus oocytes injected with capped mRNAs mixed 1α:1β:5γ
T1 sequence (P14867 28-456): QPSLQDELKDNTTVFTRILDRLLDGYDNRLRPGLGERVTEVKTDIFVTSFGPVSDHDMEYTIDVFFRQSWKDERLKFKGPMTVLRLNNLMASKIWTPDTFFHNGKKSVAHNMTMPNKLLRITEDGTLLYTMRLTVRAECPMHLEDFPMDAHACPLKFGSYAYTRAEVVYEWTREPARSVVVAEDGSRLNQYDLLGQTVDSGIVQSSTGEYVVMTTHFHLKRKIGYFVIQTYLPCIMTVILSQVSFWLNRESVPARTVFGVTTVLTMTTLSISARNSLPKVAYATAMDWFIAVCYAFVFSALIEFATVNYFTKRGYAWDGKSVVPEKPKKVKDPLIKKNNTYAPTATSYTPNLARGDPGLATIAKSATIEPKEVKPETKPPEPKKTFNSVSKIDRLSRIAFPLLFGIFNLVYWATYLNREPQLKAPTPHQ
T1 sequence (P28472 26-473): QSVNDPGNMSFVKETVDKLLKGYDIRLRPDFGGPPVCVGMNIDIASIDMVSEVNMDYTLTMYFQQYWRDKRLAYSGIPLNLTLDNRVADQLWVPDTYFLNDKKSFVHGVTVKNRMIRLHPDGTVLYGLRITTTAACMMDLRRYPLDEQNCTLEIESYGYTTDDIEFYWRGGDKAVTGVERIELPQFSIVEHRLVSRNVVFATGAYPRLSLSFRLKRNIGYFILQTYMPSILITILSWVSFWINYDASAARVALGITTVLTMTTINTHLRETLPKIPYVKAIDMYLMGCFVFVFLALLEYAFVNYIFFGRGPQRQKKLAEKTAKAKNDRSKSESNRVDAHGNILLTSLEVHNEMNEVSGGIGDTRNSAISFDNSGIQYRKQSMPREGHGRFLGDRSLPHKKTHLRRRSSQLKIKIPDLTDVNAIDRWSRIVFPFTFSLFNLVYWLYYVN
T1 sequence (P18507 40-475 S340C): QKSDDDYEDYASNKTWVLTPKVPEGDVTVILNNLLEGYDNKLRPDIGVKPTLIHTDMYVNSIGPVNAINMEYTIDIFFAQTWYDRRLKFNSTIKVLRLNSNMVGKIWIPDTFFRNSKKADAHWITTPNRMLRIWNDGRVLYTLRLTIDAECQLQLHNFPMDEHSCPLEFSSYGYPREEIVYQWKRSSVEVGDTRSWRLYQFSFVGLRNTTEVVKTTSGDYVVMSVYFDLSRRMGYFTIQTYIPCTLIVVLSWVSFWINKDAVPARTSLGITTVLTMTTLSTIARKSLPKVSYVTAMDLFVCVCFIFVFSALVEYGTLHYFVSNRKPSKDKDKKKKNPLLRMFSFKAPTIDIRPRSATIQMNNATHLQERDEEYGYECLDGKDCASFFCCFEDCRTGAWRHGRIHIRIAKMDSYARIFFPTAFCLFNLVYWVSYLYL
Description: (§1) Experiments were performed in ND-96 buffer at room temperature (20–22°C). Oocytes were placed in a low-volume (30µl) flow chamber and impaled with borosilicate microelectrodes filled with 3M KCl (resistance 0.5–3 MΩ) and voltage-clamped at −50 mV (model OC-725C; Warner Instruments, Hamden, CT, USA). Superfusate solutions in ND-96 were delivered at 2 ml/min from glass syringe reservoirs via computer-controlled valves (VC-8; Warner Instruments), a micro-manifold (ALA-VM8; ALA Scientific Instruments, Farmingdale, NY, USA), and PTFE tubing. Currents were digitized at 200 Hz on a computer running ClampEx v8.0 software (Molecular Devices, San Jose, CA, USA). Digitized traces were filtered with a 10-Hz low-pass Bessel function, leak corrected and analyzed for peak amplitude off-line using Clampfit v8 software (Molecular Devices).
(§2) Drug protection from pCMBS modification was assessed under pCMBS exposure conditions that produced approximately half of the maximal modification ratio for each mutant receptor, and a least a value of 3. This approach balanced the magnitude of functional modification signals (smaller with less pCMBS exposure) against the challenge of using a reversibly bound ligand to competitively block an irreversible covalent cysteine-modifying reaction. […] Each oocyte was used in a single SCAMP experiment. […] Etomidate was used as a positive control for anesthetic protection in α1M236C and β3M286C mutants and as a negative control in α1S270C, α1A291C, β3L231C, γ2S301C, γ2I242C, and γ2L246C mutants. R-mTFD-MPAB was used as a positive control in α1S270C, α1A291C, β3L231C, and γ2LS301C mutants and as a negative control in α1M236C and β3M286C mutants. For each cysteine mutant and protective drug combination, five oocytes were studied.
(§3) Non-linear least squares fits and statistical analyses were performed in Prism 10.4.0. (GraphPad Software, San Diego, CA, USA). […] Protection (steric inhibition of pCMBS modification) was inferred when anesthetics produced significant reductions in modification ratios relative to control (no anesthetic) values. The statistical significance threshold was p < 0.05.

[2] = molecular target: T2, α1β3M286Cγ2L GABAA receptors (Homo sapiens, UniProt P14867+P18507+P28472, M311C); details: results of this study (*); etomidate cell also cites [16]
T2 construct: expressed in transfected cells; host or cells: Xenopus oocytes injected with capped mRNA, 1α:1β:5γ
T2 sequence (P28472 26-473 M311C, one chain of several): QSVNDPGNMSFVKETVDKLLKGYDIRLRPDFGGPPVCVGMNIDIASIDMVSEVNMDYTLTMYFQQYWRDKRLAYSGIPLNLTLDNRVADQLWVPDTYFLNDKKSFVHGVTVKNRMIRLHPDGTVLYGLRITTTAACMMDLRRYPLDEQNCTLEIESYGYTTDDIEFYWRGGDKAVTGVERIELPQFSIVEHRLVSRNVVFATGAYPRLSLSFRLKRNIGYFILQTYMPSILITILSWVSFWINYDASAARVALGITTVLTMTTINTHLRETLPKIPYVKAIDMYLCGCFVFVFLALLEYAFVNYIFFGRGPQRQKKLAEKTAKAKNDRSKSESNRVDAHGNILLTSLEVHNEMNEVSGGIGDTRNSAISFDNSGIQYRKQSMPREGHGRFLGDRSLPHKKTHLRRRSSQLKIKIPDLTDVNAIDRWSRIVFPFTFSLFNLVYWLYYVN
T2 sequence (P18507 40-475, one chain of several): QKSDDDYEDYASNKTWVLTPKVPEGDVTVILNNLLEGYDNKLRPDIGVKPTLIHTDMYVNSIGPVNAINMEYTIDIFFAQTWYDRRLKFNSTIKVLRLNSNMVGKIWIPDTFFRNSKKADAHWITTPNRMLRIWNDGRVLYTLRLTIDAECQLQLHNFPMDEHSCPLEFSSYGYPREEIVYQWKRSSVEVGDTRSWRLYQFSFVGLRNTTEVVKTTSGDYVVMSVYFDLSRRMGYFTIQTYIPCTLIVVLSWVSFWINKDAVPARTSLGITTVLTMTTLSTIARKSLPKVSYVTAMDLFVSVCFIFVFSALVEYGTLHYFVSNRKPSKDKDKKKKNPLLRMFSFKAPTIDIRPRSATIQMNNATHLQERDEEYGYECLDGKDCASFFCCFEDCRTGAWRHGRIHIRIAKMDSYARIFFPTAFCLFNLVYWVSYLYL
Description: as §1, §2, §3

[3] = molecular target: T3, α1M236Cβ3γ2L GABAA receptors (Homo sapiens, UniProt P14867+P18507+P28472, M263C); details: results of this study (*); some cells also cite [9]
T3 construct: expressed in transfected cells; host or cells: Xenopus oocytes injected with capped mRNA, 1α:1β:5γ
T3 sequence (P14867 28-456 M263C, one chain of several): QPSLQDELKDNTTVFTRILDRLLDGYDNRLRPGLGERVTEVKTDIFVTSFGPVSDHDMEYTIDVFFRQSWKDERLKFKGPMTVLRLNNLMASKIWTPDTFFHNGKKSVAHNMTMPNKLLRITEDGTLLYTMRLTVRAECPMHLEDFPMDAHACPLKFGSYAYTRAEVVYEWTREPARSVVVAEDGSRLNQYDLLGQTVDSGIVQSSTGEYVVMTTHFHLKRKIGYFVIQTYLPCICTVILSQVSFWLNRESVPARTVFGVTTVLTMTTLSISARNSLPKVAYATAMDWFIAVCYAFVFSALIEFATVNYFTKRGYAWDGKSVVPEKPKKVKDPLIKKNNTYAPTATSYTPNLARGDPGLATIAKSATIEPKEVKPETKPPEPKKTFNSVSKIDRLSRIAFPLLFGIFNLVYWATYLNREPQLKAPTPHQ
T3 sequence (P18507 40-475, one chain of several): as the sequence (P18507 40-475, one chain of several) above
Description: as §1, §2, §3

Structure (SMILES) | SCAMP result, γ2+ (M2, M3) S301 [1] | SCAMP result, β3+ (M2, M3) M286 [2] | SCAMP result, α1– (M1) M236 [3]
C=CCC1(c2cccc(C3(C(F)(F)F)N=N3)c2)C(=O)NC(=O)N(C)C1=O (stereo not drawn) [R-mTFD-MPAB, R-5-allyl-1-methyl-5-(m-trifluoromethyl-diazirynylphenyl) barbituric acid] | +* |  | 
CCOC(=O)c1cncn1[C@H](C)c1ccccc1 [etomidate, R-etomidate] |  | +^[16], * | +^[9], *
